In assay [1] the target is recombinant human HDAC6 (Homo sapiens (Human), UniProt Q9UBN7). In words: Enzymatic screening, HDAC6 inhibition (fluorogenic FdL_G substrate). The assay is classed as biochemical. The procedure: (§1) For each test compound, 100× concentrated DMSO solutions at 8 doses were prepared and then diluted in assay buffer (25 mM Tris-HCl, pH 8, 130 mM NaCl, 0.05% Tween-20, 10% Glycerol) to obtain 5× concentrated solutions in relation to the final concentrations (typical final concentration range—6.4-200000 nM or 0.18-50000 nM, final DMSO content—1%). Then 10 μL solution of each test compound concentration were placed on a 96-well plate in triplicate and 15 μL of 3.33× concentrated enzyme solution in the assay buffer containing 3.33× concentrated BSA (final BSA concentration—2 mg/mL for HDAC4, HDAC5 and HDAC9 or 1 mg/mL for other isoforms) and in the case of HDAC6-3.33× concentrated TCEP (final TCEP concentration—200 μM) were added to each well. After a period of preincubation (incubation times and temperatures vary for different isoforms and are shown in table 1) 25 μL of solution containing the substrate were added. As substrate, FLUOR DE LYS® deacetylase substrate (Enzo Life Sciences, cat: BML-KI104, FdL), FLUOR DE LYS®-Green substrate (Enzo Life Sciences, cat: BML-KI572, FdL_G) or Boc-Lys(Tfa)-AMC (Bachem, cat: 4060676.005, Tfal)—2× concentrated solution in assay buffer were used. Following a reaction period (reaction times and temperatures vary for different isoforms and are reported in Table 1), 50 μL of the development solution consisting of concentrate FLUOR DE LYS® developer I (Enzo Life Sciences, ca: BML-KI105), diluted 200 times in buffer (50 mM Tris-HCl, pH 8, 137 mM NaCl, 2.7 mM KCl, 1 mM MgCl2) plus 2 μM TSA was added and, after 25 minutes at room temperature in the dark, using the Victor 1420 Multilabel Counter Perkin Elmer Wallac instrument, the fluorescence reading was carried out.
Sequence of recombinant human HDAC6 (Q9UBN7 whole entry, canonical isoform): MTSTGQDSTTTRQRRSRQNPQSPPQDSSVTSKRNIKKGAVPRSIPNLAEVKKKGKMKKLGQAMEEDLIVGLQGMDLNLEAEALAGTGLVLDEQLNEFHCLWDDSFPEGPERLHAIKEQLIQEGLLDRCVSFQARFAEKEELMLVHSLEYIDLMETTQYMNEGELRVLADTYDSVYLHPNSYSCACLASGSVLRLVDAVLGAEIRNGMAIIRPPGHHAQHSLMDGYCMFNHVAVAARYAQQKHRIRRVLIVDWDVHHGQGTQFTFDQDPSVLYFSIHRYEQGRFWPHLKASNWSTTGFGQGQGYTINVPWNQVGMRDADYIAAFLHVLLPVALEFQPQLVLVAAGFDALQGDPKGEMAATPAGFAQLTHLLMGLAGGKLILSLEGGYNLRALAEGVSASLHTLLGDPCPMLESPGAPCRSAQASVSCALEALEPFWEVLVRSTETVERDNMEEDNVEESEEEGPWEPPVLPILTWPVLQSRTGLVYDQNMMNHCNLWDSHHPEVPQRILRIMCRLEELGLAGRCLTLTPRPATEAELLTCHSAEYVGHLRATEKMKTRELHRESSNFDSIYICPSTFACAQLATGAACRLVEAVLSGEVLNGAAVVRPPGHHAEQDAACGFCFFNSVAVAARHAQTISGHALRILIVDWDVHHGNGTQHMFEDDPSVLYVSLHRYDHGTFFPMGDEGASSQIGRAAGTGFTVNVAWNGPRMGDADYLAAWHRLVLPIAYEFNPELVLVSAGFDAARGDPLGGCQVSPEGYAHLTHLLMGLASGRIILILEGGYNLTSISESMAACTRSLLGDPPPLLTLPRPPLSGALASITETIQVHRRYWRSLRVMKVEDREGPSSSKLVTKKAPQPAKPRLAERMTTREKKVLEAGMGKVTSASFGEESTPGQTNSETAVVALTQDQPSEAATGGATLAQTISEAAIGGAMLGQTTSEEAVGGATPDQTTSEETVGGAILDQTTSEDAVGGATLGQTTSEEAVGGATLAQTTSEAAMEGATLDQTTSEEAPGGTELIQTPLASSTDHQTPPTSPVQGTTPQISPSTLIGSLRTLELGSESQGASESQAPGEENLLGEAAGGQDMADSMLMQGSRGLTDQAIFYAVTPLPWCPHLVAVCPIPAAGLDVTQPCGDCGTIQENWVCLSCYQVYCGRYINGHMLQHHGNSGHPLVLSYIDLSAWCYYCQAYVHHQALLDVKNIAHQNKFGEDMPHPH

In assay [2] the target is recombinant human HDAC1 (Homo sapiens (Human), UniProt Q13547). In words: Enzymatic screening, HDAC1 inhibition (fluorogenic FdL_G substrate). The assay is classed as biochemical. How it is done: as §1
Sequence of recombinant human HDAC1 (Q13547 whole entry): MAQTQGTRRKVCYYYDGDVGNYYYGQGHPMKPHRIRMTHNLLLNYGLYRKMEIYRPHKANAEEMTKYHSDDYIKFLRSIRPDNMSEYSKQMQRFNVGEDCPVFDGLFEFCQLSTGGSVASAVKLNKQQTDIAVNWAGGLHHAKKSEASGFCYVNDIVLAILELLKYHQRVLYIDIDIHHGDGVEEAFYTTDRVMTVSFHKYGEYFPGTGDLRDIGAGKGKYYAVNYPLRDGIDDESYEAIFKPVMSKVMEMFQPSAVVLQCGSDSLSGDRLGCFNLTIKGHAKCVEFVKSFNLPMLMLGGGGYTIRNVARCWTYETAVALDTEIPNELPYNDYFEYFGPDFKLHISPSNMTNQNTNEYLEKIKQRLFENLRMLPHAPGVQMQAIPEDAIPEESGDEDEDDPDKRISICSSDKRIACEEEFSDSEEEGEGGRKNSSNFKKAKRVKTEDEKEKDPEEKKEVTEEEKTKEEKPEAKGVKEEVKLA

Where only a bound is given, the exact number is not on record here.

As to `CC(C)(C)OC(=O)N1CCC2(C1)C(=O)Nc1ccc(-c3cn(Cc4ccc(-c5nnc(C(F)F)o5)cn4)nn3)cc12` (single isomer, unassigned) [compound 265, tert-butyl 5-[1-({5-[5-(difluoromethyl)-1,3,4-oxadiazol-2-yl]pyridin-2-yl}methyl)-1H-1,2,3-triazol-4-yl]-2-oxo-1,2-dihydrospiro[indole-3,3′-pyrrolidine]-1′-carboxylate], the IC50 (as a rule, the concentration at which inhibition is half-maximal) was 26 nM in assay [1] and greater than 200000 nM in assay [2].

Consider `CC(C)(C)OC(=O)N1CCC2(C1)C(=O)Nc1ccc(-c3cn(Cc4ccc(-c5nnc(C(F)F)o5)cn4)nn3)cc12` (single isomer, unassigned) [compound 266, tert-butyl 5-[1-({5-[5-(difluoromethyl)-1,3,4-oxadiazol-2-yl]pyridin-2-yl}methyl)-1H-1,2,3-triazol-4-yl]-2-oxo-1,2-dihydrospiro[indole-3,3′-pyrrolidine]-1′-carboxylate], for which the IC50 in assay [1] was 35 nM; in assay [2], greater than 200000 nM.

As for `CC[C@H](c1ccc(-c2nnc(C(F)F)o2)cc1)n1cc(-c2cccc(NC(=O)N3CCOCC3)c2)nn1` (stereo in doubt) [compound 184, N-(3-(1-(1-(4-(5-(difluoromethyl)-1,3,4-oxadiazol-2-yl)phenyl)propyl)-1H-1,2,3-triazol-4-yl)phenyl)morpholine-4-carboxamide], the half-inhibitory concentration (IC50) in assay [1] was 96 nM; in assay [2] it was greater than 200000 nM.

With `CCC[C@@H](c1ccc(-c2nnc(C(F)F)o2)cc1)n1cc(-c2cccc(NC(=O)N3CCOCC3)c2)nn1` (stereo in doubt) [compound 205, N-(3-(1-(1-(4-(5-(difluoromethyl)-1,3,4-oxadiazol-2-yl)phenyl)butyl)-1H-1,2,3-triazol-4-yl)phenyl)morpholine-4-carboxamide], the IC50 in assay [1] was 122 nM; in assay [2] it was greater than 200000 nM.

In the case of `O=C1Nc2ccc(-c3cn(Cc4ccc(-c5nnc(C(F)F)o5)cn4)nn3)cc2C12CCCC2` [Compd. 26, 5′-(1-((5-(5-(difluoromethyl)-1,3,4-oxadiazol-2-yl)pyridin-2-yl)methyl)-1H-1,2,3-triazol-4-yl)spiro[cyclopentane-1,3′-indolin]-2′-one], the IC50 in assay [1] is 8 nM; in assay [2], greater than 200000 nM.

As for `CN1CC(C(=O)Nc2cccc(-c3cn(Cc4c(F)cc(-c5nnc(C(F)F)o5)cc4F)nn3)c2)C1` [Compd. 86, N-(3-(1-(4-(5-(difluoromethyl)-1,3,4-oxadiazol-2-yl)-2,6-difluorobenzyl)-1H-1,2,3-triazol-4-yl)phenyl)-1-methylazetidine-3-carboxamide], the figures for the IC50 in assay [1] and in assay [2] were 34 nM and greater than 200000 nM, respectively.

As to `O=C(Nc1ccc(-c2cn(Cc3ncc(-c4nnc(C(F)F)o4)cn3)nn2)cn1)C(F)F` [Compd. 88, N-(5-(1-((5-(5-(difluoromethyl)-1,3,4-oxadiazol-2-yl)pyrimidin-2-yl)methyl)-1H-1,2,3-triazol-4-yl)pyridin-2-yl)-2,2-difluoroacetamide], the IC50 in assay [1] is 34 nM; in assay [2], greater than 200000 nM.

For `Nc1ccc(-c2cn(C(CO)c3ccc(-c4nnc(C(F)F)o4)cc3)nn2)cn1` (stereo not shown) [Compd. 94, 2-(4-(6-aminopyridin-3-yl)-1H-1,2,3-triazol-1-yl)-2-(4-(5-(difluoromethyl)-1,3,4-oxadiazol-2-yl)phenyl)ethan-1-ol], the IC50 in assay [1] is 36 nM; in assay [2] it was greater than 200000 nM.

As for `CC(c1ccc(-c2nnc(C(F)F)o2)cc1)n1cc(-c2ccc(N)nc2)nn1` (stereo not shown) [Compd. 158, 5-(1-(1-(4-(5-(difluoromethyl)-1,3,4-oxadiazol-2-yl)phenyl)ethyl)-1H-1,2,3-triazol-4-yl)pyridin-2-amine], the IC50 in assay [1] worked out at 72 nM.

As to `C[C@@H]1CN(c2ccc(-c3nnn(Cc4ccc(-c5nnc(C(F)F)o5)cc4)n3)cn2)CCN1` [compound 159, (R)-2-(difluoromethyl)-5-(4-((5-(6-(3-methylpiperazin-1-yl)pyridin-3-yl)-2H-tetrazol-2-yl)methyl)phenyl)-1,3,4-oxadiazole], in assay [2], the IC50 was greater than 200000 nM.

Consider `C[C@H]1CN(c2ccc(-c3nnn(Cc4ccc(-c5nnc(C(F)F)o5)cc4)n3)cn2)CCN1` [compound 182, (S)-2-(difluoromethyl)-5-(4-((5-(6-(3-methylpiperazin-1-yl)pyridin-3-yl)-2H-tetrazol-2-yl)methyl)phenyl)-1,3,4-oxadiazole], for which the IC50 in assay [2] is greater than 200000 nM.

For the compound `COc1ccc(-c2nnn(Cc3ccc(-c4nnc(C(F)F)o4)cc3)n2)cc1` [compound 204, 2-(difluoromethyl)-5-(4-((5-(4-methoxyphenyl)-2H-tetrazol-2-yl)methyl)phenyl)-1,3,4-oxadiazole], in assay [1], the IC50 amounted to 122 nM.

As to `FC(F)c1nnc(-c2ccc(Cn3nnc(-c4ccc(Cl)cc4Cl)n3)cc2)o1` [compound 263, 2-(4-((5-(2,4-dichlorophenyl)-2H-tetrazol-2-yl)methyl)phenyl)-5-(difluoromethyl)-1,3,4-oxadiazole], the IC50 in assay [1] was found to be 489 nM.

As for `Nc1ncc2cc(-c3nnn(Cc4ccc(-c5nnc(C(F)F)o5)cc4)n3)ccc2n1` [compound 278, 6-(2-(4-(5-(difluoromethyl)-1,3,4-oxadiazol-2-yl)benzyl)-2H-tetrazol-5-yl)quinazolin-2-amine], in assay [1], the IC50 stood at 186 nM.

With `Nc1cnc2ccc(-c3nnn(Cc4cc(F)c(-c5nnc(C(F)F)o5)cc4F)n3)cc2c1` [compound 398, 6-[2-[[4-[5-(difluoromethyl)-1,3,4-oxadiazol-2-yl]-2,5-difluorophenyl]methyl]tetrazol-5-yl]quinolin-3-amine], in assay [1], the IC50 came out at 49 nM.

For the compound `Nc1cnc2ccc(-c3nnn(Cc4ccc(-c5nnc(C(F)F)o5)c(F)c4)n3)cc2c1` [compound 400, 6-[2-[[4-[5-(difluoromethyl)-1,3,4-oxadiazol-2-yl]-3-fluorophenyl]methyl]tetrazol-5-yl]quinolin-3-amine], in assay [1], the half-maximal inhibitory concentration (IC50) is 32 nM.

Take `Nc1ncnc2sc(-c3cn(Cc4ccc(-c5nnc(C(F)F)o5)c(F)c4)nn3)cc12` [compound 417, 6-[1-({4-[5-(difluoromethyl)-1,3,4-oxadiazol-2-yl]-3-fluorophenyl}methyl)-1H-1,2,3-triazol-4-yl]thieno[2,3-d]pyrimidin-4-amine]: in assay [1], the IC50 was 44 nM.

Turning to `Nc1ncnc2cc(-c3cn(Cc4ccc(-c5nnc(C(F)F)o5)c(F)c4)nn3)ccc12` [compound 418, 7-(1-(4-(5-(difluoromethyl)-1,3,4-oxadiazol-2-yl)-3-fluorobenzyl)-1H-1,2,3-triazol-4-yl)quinazolin-4-amine], the IC50 in assay [1] worked out at 27 nM.

Take `Nc1ncc2cc(-c3nnn(Cc4ccc(-c5nnc(C(F)F)o5)cc4F)n3)ccc2n1` [compound 424, 6-(2-(4-(5-(difluoromethyl)-1,3,4-oxadiazol-2-yl)-2-fluorobenzyl)-2H-tetrazol-5-yl)quinazolin-2-amine]: the IC50 in assay [1] is 76 nM.

Regarding `Nc1ncc2cc(-c3nnn(Cc4ccc(-c5nnc(C(F)F)o5)cc4Cl)n3)ccc2n1` [compound 425, 6-(2-(2-chloro-4-(5-(difluoromethyl)-1,3,4-oxadiazol-2-yl)benzyl)-2H-tetrazol-5-yl)quinazolin-2-amine], the IC50 in assay [1] was 545 nM.

For `Fc1cc(-c2nnc(C(F)F)o2)ccc1Cn1nnc(-c2ccc3cnccc3c2)n1` [compound 427, 2-(difluoromethyl)-5-(3-fluoro-4-((5-(isoquinolin-6-yl)-2H-tetrazol-2-yl)methyl)phenyl)-1,3,4-oxadiazole], in assay [1], the IC50 is 72 nM.

Take `Fc1cc(-c2nnc(C(F)F)o2)c(F)cc1Cn1nnc(-c2ccc3cnccc3c2)n1` [compound 428, 2-(2,5-difluoro-4-((5-(isoquinolin-6-yl)-2H-tetrazol-2-yl)methyl)phenyl)-5-(difluoromethyl)-1,3,4-oxadiazole]: in assay [1], the IC50 was 99 nM.

Take `Fc1cc(-c2nnc(C(F)F)o2)ccc1Cn1nnc(-c2nccc3ccccc23)n1` [compound 431, 2-(difluoromethyl)-5-(3-fluoro-4-((5-(isoquinolin-1-yl)-2H-tetrazol-2-yl)methyl)phenyl)-1,3,4-oxadiazole]: the IC50 in assay [1] came out at 352 nM.

In the case of `Nc1ncnc2cc(-c3cn(Cc4cc(F)c(-c5nnc(C(F)F)o5)cc4F)nn3)ccc12` [compound 433, 7-(1-(4-(5-(difluoromethyl)-1,3,4-oxadiazol-2-yl)-2,5-difluorobenzyl)-1H-1,2,3-triazol-4-yl)quinazolin-4-amine], the IC50 in assay [1] came out at 23 nM.

Regarding `Nc1ncnc2cc(-c3cn(Cc4ccc(-c5nnc(C(F)F)o5)cc4Cl)nn3)ccc12` [compound 434, 7-(1-(2-chloro-4-(5-(difluoromethyl)-1,3,4-oxadiazol-2-yl)benzyl)-1H-1,2,3-triazol-4-yl)quinazolin-4-amine], in assay [1], the IC50 amounted to 59 nM.

On to `CNc1ccc2cc(-c3nnn(Cc4cc(F)c(-c5nnc(C(F)F)o5)cc4F)n3)ccc2n1` [compound 504, 6-(2-(4-(5-(difluoromethyl)-1,3,4-oxadiazol-2-yl)-2,5-difluorobenzyl)-2H-tetrazol-5-yl)-N-methylquinolin-2-amine], for which the IC50 in assay [1] was 100 nM.

The values are drawn from US20230286970A1, “NOVEL OXADIAZOLE-BASED SELECTIVE HDAC6 INHIBITORS” (ITALFARMACO S.P.A., priority 2020, published 2023).
